Results taken from PubChem BioAssay (NCI).
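Method: 48-hour compound exposure of cells in 96-well plates, five concentrations, linear interpolation of endpoints. At the TGI there is no net growth.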

Columns and labels:
Assay in all cases: NCI tumour cell line growth inhibition, 48 h
CAKI-1 renal = test system: CAKI-1 renal
SNB-75 CNS = test system: SNB-75 CNS
OVCAR-5 ovarian = test system: OVCAR-5 ovarian
TK-10 renal = test system: TK-10 renal
UACC-257 melanoma = test system: UACC-257 melanoma
SNB-19 CNS = test system: SNB-19 CNS
SK-OV-3 ovarian = test system: SK-OV-3 ovarian
IGROV1 ovarian = test system: IGROV1 ovarian
SN12C renal = test system: SN12C renal
HOP-92 NSCLC = test system: HOP-92 NSCLC
HCC-2998 colon = test system: HCC-2998 colon
786-0 renal = test system: 786-0 renal
U251 CNS = test system: U251 CNS
SF-539 CNS = test system: SF-539 CNS
NCI/ADR-RES ovarian = test system: NCI/ADR-RES ovarian
HOP-62 NSCLC = test system: HOP-62 NSCLC
SF-268 CNS = test system: SF-268 CNS
COLO 205 colon = test system: COLO 205 colon
SK-MEL-2 melanoma = test system: SK-MEL-2 melanoma
A549 NSCLC = test system: A549 NSCLC
SF-295 CNS = test system: SF-295 CNS
OVCAR-3 ovarian = test system: OVCAR-3 ovarian
HCT-116 colon = test system: HCT-116 colon
SK-MEL-5 melanoma = test system: SK-MEL-5 melanoma
HT29 colon = test system: HT29 colon
EKVX NSCLC = test system: EKVX NSCLC
ACHN renal = test system: ACHN renal
NCI-H23 lung = test system: NCI-H23 lung
MCF7 breast = test system: MCF7 breast
SK-MEL-28 melanoma = test system: SK-MEL-28 melanoma
HCT-15 colon = test system: HCT-15 colon
MDA-MB-231 breast = test system: MDA-MB-231 breast
MALME-3M melanoma = test system: MALME-3M melanoma
NCI-H460 lung = test system: NCI-H460 lung
SR leukemia = test system: SR leukemia
KM12 colon = test system: KM12 colon
MOLT-4 leukemia = test system: MOLT-4 leukemia
HS 578T breast = test system: HS 578T breast
MDA-N = test system: MDA-N
K-562 leukemia = test system: K-562 leukemia
UO-31 renal = test system: UO-31 renal
M14 melanoma = test system: M14 melanoma
SW-620 colon = test system: SW-620 colon
RPMI-8226 leukemia = test system: RPMI-8226 leukemia
CCRF-CEM leukemia = test system: CCRF-CEM leukemia
PC-3 prostate = test system: PC-3 prostate
OVCAR-8 ovarian = test system: OVCAR-8 ovarian
HL-60(TB) leukemia = test system: HL-60(TB) leukemia
LOX IMVI melanoma = test system: LOX IMVI melanoma
NCI-H226 lung = test system: NCI-H226 lung
A498 renal = test system: A498 renal
DU-145 prostate = test system: DU-145 prostate
UACC-62 melanoma = test system: UACC-62 melanoma
MDA-MB-435 = test system: MDA-MB-435
OVCAR-4 ovarian = test system: OVCAR-4 ovarian
NCI-H522 lung = test system: NCI-H522 lung
RXF 393 renal = test system: RXF 393 renal

`CCOC(=O)NC(C(=O)OCC)C(F)(F)F` (centres undefined) showed a TGI (CAKI-1 renal) greater than 100 µM, a TGI (SNB-75 CNS) greater than 100 µM and a TGI (OVCAR-5 ovarian) greater than 100 µM. For the same compound, the TGI (TK-10 renal) was greater than 100 µM, the TGI (UACC-257 melanoma) was greater than 100 µM and the TGI (SNB-19 CNS) was greater than 100 µM. For the same compound, the TGI (SK-OV-3 ovarian) was greater than 100 µM, the TGI (IGROV1 ovarian) was greater than 100 µM and the TGI (SN12C renal) was greater than 100 µM. It also gave a TGI (HOP-92 NSCLC) greater than 100 µM, a TGI (HCC-2998 colon) greater than 100 µM and a TGI (786-0 renal) greater than 100 µM. The TGI (U251 CNS) was greater than 100 µM, the TGI (SF-539 CNS) was greater than 100 µM and the TGI (NCI/ADR-RES ovarian) was greater than 100 µM. It also gave a TGI (HOP-62 NSCLC) greater than 100 µM, a TGI (SF-268 CNS) greater than 100 µM and a TGI (COLO 205 colon) greater than 100 µM. For the same compound, the TGI (SK-MEL-2 melanoma) was greater than 100 µM, the TGI (A549 NSCLC) was greater than 100 µM and the TGI (SF-295 CNS) was greater than 100 µM. For the same compound, the TGI (OVCAR-3 ovarian) was greater than 100 µM, the TGI (HCT-116 colon) was greater than 100 µM and the TGI (SK-MEL-5 melanoma) was greater than 100 µM. The TGI (HT29 colon) was greater than 100 µM, the TGI (EKVX NSCLC) was greater than 100 µM and the TGI (ACHN renal) was greater than 100 µM. For the same compound, the TGI (NCI-H23 lung) was greater than 100 µM, the TGI (MCF7 breast) was greater than 100 µM and the TGI (SK-MEL-28 melanoma) was greater than 100 µM. The TGI (HCT-15 colon) was greater than 100 µM, the TGI (MDA-MB-231 breast) was greater than 100 µM and the TGI (MALME-3M melanoma) was greater than 100 µM. It also gave a TGI (NCI-H460 lung) greater than 100 µM, a TGI (SR leukemia) greater than 100 µM and a TGI (KM12 colon) greater than 100 µM. It also gave a TGI (MOLT-4 leukemia) greater than 100 µM, a TGI (HS 578T breast) greater than 100 µM and a TGI (MDA-N) greater than 100 µM. It also gave a TGI (K-562 leukemia) greater than 100 µM, a TGI (UO-31 renal) greater than 100 µM and a TGI (M14 melanoma) greater than 100 µM. It also gave a TGI (SW-620 colon) greater than 100 µM, a TGI (RPMI-8226 leukemia) greater than 100 µM and a TGI (CCRF-CEM leukemia) greater than 100 µM. The TGI (PC-3 prostate) was greater than 100 µM, the TGI (OVCAR-8 ovarian) was greater than 100 µM and the TGI (HL-60(TB) leukemia) was 69.9 µM. It also gave a TGI (LOX IMVI melanoma) greater than 100 µM.

Work on `COc1cc2c(cc1OC)CC(=O)c1cc(OC)c(OC)cc1/C=C\2` yielded a TGI (CAKI-1 renal) greater than 12.5 µM, a TGI (SNB-75 CNS) greater than 12.5 µM and a TGI (OVCAR-5 ovarian) greater than 12.5 µM. For the same compound, the TGI (TK-10 renal) was greater than 12.5 µM, the TGI (UACC-257 melanoma) was greater than 12.5 µM and the TGI (SNB-19 CNS) was greater than 12.5 µM. The TGI (NCI-H226 lung) was greater than 12.5 µM, the TGI (SK-OV-3 ovarian) was greater than 12.5 µM and the TGI (IGROV1 ovarian) was greater than 12.5 µM. It also gave a TGI (SN12C renal) greater than 12.5 µM, a TGI (HOP-92 NSCLC) greater than 12.5 µM and a TGI (786-0 renal) greater than 12.5 µM. The TGI (U251 CNS) was greater than 12.5 µM, the TGI (SF-539 CNS) was greater than 12.5 µM and the TGI (A498 renal) was greater than 12.5 µM. For the same compound, the TGI (NCI/ADR-RES ovarian) was greater than 12.5 µM, the TGI (HOP-62 NSCLC) was greater than 12.5 µM and the TGI (SF-268 CNS) was greater than 12.5 µM. The TGI (DU-145 prostate) was greater than 12.5 µM, the TGI (COLO 205 colon) was greater than 12.5 µM and the TGI (UACC-62 melanoma) was greater than 12.5 µM. For the same compound, the TGI (SK-MEL-2 melanoma) was greater than 12.5 µM, the TGI (MDA-MB-435) was greater than 12.5 µM and the TGI (A549 NSCLC) was greater than 12.5 µM. It also gave a TGI (OVCAR-4 ovarian) greater than 12.5 µM, a TGI (SF-295 CNS) greater than 12.5 µM and a TGI (OVCAR-3 ovarian) greater than 12.5 µM. The TGI (HCT-116 colon) was greater than 12.5 µM, the TGI (SK-MEL-5 melanoma) was greater than 12.5 µM and the TGI (HT29 colon) was greater than 12.5 µM. For the same compound, the TGI (EKVX NSCLC) was greater than 12.5 µM, the TGI (ACHN renal) was greater than 12.5 µM and the TGI (NCI-H23 lung) was greater than 12.5 µM. The TGI (MCF7 breast) was greater than 12.5 µM, the TGI (NCI-H522 lung) was greater than 12.5 µM and the TGI (SK-MEL-28 melanoma) was greater than 12.5 µM. The TGI (HCT-15 colon) was greater than 12.5 µM, the TGI (MDA-MB-231 breast) was greater than 12.5 µM and the TGI (MALME-3M melanoma) was greater than 12.5 µM. The TGI (NCI-H460 lung) was greater than 12.5 µM, the TGI (KM12 colon) was greater than 12.5 µM and the TGI (MOLT-4 leukemia) was greater than 12.5 µM. It also gave a TGI (HS 578T breast) greater than 12.5 µM, a TGI (MDA-N) of 7.36 µM and a TGI (K-562 leukemia) greater than 12.5 µM. For the same compound, the TGI (UO-31 renal) was greater than 12.5 µM, the TGI (M14 melanoma) was greater than 12.5 µM and the TGI (SW-620 colon) was greater than 12.5 µM. It also gave a TGI (RXF 393 renal) greater than 12.5 µM, a TGI (RPMI-8226 leukemia) greater than 12.5 µM and a TGI (CCRF-CEM leukemia) greater than 12.5 µM. It also gave a TGI (PC-3 prostate) greater than 12.5 µM, a TGI (OVCAR-8 ovarian) greater than 12.5 µM and a TGI (HL-60(TB) leukemia) of 7.05 µM. It also gave a TGI (LOX IMVI melanoma) greater than 12.5 µM.
